Measured values taken from ChEMBL document CHEMBL3576831, “Discovery of a Selective TRPM8 Antagonist with Clinical Efficacy in Cold-Related Pain” (ACS Med Chem Lett, 2015).
pIC50, pKi: −log10 of the molar value. Blank lines part the entries; values can stand above or below the compound they belong to. Active and inactive are the calls of the source. No cut-off for these calls is given here.

How the values were obtained:
[1] = biological target: T1, Transient receptor potential cation channel subfamily M member 8 (Homo sapiens, UniProt Q7Z2W7); assay: Antagonist activity against human recombinant TRPM8 expressed in CHO T-rex cells assessed as inhibition of WS12-induced calcium response pre-incubated for 20 mins before WS12 addition; format: cell-based
[2] = biological target: CYP2C9 (Homo sapiens, UniProt P11712); assay: Inhibition of CYP2C9 (unknown origin) at 3 uM; format: ADME
[3] = biological target: CYP3A4 (Homo sapiens, UniProt P08684); assay: Inhibition of CYP3A4 (unknown origin) at 3 uM; format: ADME
[4] = test system: Liver microsome; assay: Intrinsic clearance in rat liver microsomes; format: ADME
[5] = biological target: T2, CYP1A2 (Homo sapiens, UniProt P05177); assay: Inhibition of CYP1A2 (unknown origin) at 3 uM; format: ADME
T2 sequence (P05177 whole entry): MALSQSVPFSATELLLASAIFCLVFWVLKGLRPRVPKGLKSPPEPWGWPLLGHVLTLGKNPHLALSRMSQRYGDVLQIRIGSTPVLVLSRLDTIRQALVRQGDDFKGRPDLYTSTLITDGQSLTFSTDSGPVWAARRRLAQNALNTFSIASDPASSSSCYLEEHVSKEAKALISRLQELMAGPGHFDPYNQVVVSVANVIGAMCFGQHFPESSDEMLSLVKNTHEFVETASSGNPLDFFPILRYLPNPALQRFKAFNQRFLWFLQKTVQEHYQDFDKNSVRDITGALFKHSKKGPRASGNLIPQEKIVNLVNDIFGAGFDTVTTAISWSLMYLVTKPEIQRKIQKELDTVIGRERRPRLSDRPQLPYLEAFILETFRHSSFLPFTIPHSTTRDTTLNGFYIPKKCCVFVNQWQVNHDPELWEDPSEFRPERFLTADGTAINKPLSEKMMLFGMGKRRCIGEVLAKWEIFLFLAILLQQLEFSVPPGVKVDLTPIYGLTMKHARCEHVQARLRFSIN

[6] = biological target: CYP2D6 (Homo sapiens, UniProt P10635); assay: Inhibition of CYP2D6 (unknown origin) at 3 uM; format: ADME
[7] = test system: Hepatocyte; assay: Intrinsic clearance in human hepatocytes assessed per million cells; format: ADME, cell-based
[8] = Lipophilicity, log D of the compound; format: physicochemical; settings: octanol/water
[9] = Intrinsic clearance in human liver microsomes; format: ADME; settings: read-out: CLH
[10] = biological target: T3, CYP2C8 (Homo sapiens, UniProt P10632); assay: Inhibition of CYP2C8 (unknown origin) at 3 uM; format: ADME
T3 sequence (P10632 whole entry): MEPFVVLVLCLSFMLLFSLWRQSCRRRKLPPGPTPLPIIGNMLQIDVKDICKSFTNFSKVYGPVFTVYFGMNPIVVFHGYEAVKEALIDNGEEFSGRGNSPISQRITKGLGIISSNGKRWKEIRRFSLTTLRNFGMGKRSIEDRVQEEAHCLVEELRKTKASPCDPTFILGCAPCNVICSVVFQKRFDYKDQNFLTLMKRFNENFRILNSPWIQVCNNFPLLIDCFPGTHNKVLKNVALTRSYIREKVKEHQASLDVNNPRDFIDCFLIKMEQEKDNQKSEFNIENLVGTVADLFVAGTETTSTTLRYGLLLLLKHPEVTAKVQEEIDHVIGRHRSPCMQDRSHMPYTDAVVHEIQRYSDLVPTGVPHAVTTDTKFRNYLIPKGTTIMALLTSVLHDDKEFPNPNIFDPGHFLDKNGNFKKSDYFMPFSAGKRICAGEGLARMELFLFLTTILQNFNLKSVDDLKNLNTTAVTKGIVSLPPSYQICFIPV

[11] = biological target: T4, Voltage-gated inwardly rectifying potassium channel KCNH2 (Homo sapiens, UniProt Q12809); assay: Inhibition of dofetilide binding to human ERG
[12] = Half life in beagle dog at 0.2 mg/kg, iv; format: ADME, organism-based, Canis lupus familiaris; settings: in vivo
[13] = biological target: T4, Voltage-gated inwardly rectifying potassium channel KCNH2; assay: Inhibition of human ERG
[14] = Oral bioavailability in rat at 2 mg/kg; format: ADME, organism-based; settings: in vivo
[15] = Clearance in beagle dog at 0.2 mg/kg, iv; format: ADME, organism-based, Canis lupus familiaris; settings: in vivo
[16] = test system: Homo sapiens; assay: Analgesic effect in human at 900 mg administered as single dose by cold pressor test; format: functional, organism-based
[17] = Clearance in rat; format: ADME, organism-based; settings: in vivo
[18] = organism: Rattus norvegicus; assay: Drug metabolism in bile-duct cannulated rat assessed as formation of acyl glucuronide formation; format: ADME, organism-based; settings: in vivo
[19] = Oral bioavailability in rat at 10 mg/kg; format: ADME, organism-based; settings: in vivo
[20] = Permeability in RRCK cells; format: ADME, cell-based, Canis lupus familiaris, MDCKII-LE; settings: dog, MDCK; read-out: permeability
[21] = Oral absorption in beagle dog at 20 mg/kg; format: ADME, organism-based, Canis lupus familiaris; settings: in vivo
[22] = Oral bioavailability in beagle dog at 20 mg/kg; format: ADME, organism-based, Canis lupus familiaris; settings: in vivo
[23] = organism: Rattus norvegicus; assay: Unbound clearance in rat; format: ADME, organism-based; settings: in vivo
[24] = Volume of distribution at steady state in rat; format: ADME, organism-based; settings: in vivo, read-out: Vdss
[25] = organism: Homo sapiens; assay: Selectivity for human TRPM8 over TRPV1 (unknown origin)
[26] = test system: Homo sapiens; assay: Toxicity in human assessed as effect on core body temperature up to 900 mg administered as single dose during cold pressor test; format: organism-based; settings: in vivo
[27] = Fraction unbound in dog plasma; format: ADME, cell-free, Canis lupus familiaris
[28] = Oral absorption in rat at 10 mg/kg; format: ADME, organism-based; settings: in vivo
[29] = test system: Homo sapiens; assay: Toxicity in human assessed as induction of nontolerated hot sensation localized to mouth, face, upper body, arms and hands at 900 mg administered as single dose during cold pressor test; format: organism-based; settings: in vivo
[30] = biological target: T1, Transient receptor potential cation channel subfamily M member 8; assay: Antagonist activity against human TRPM8 by single cell patch clamp electrophysiology
[31] = organism: Cavia porcellus; assay: Analgesic effect in guinea pig model of cold-induced bladder contractility assessed as maximum unbound concentration to causing therapeutic efficacy; format: functional
[32] = Half life in rat; format: ADME, organism-based; settings: in vivo
[33] = Fraction unbound in guinea pig plasma; format: ADME, cell-free, Cavia porcellus
[34] = Fraction unbound in human plasma; format: ADME, cell-free
[35] = Efflux ratio in MDCK cells; format: ADME, cell-based, Canis lupus familiaris; settings: dog
[36] = Volume of distribution at steady state in beagle dog at 0.2 mg/kg, iv; format: ADME, organism-based, Canis lupus familiaris; settings: in vivo, read-out: Vdss
[37] = Oral absorption in rat at 2 mg/kg; format: ADME, organism-based; settings: in vivo
[38] = Fraction unbound in rat plasma; format: ADME, cell-free
[39] = test system: Canis familiaris; assay: Unbound clearance in beagle dog at 0.2 mg/kg, iv; format: ADME, organism-based, Canis lupus familiaris; settings: in vivo
[40] = organism: Homo sapiens; assay: Selectivity for human TRPM8 over TRPA1 (unknown origin)

Sequence of CYP2D6 (P10635 whole entry): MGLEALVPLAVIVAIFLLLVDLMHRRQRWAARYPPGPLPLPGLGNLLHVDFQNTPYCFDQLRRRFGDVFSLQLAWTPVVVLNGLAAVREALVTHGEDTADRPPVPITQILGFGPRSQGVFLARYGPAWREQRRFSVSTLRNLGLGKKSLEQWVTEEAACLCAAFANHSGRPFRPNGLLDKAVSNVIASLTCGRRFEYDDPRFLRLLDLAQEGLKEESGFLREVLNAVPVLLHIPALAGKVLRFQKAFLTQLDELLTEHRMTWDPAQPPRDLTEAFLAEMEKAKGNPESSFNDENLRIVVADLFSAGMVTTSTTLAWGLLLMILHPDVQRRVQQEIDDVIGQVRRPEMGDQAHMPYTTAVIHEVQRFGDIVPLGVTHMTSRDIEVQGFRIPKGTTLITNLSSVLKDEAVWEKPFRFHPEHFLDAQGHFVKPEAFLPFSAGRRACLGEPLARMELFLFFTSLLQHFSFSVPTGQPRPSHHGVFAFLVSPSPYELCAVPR
Sequence of CYP3A4 (P08684 whole entry): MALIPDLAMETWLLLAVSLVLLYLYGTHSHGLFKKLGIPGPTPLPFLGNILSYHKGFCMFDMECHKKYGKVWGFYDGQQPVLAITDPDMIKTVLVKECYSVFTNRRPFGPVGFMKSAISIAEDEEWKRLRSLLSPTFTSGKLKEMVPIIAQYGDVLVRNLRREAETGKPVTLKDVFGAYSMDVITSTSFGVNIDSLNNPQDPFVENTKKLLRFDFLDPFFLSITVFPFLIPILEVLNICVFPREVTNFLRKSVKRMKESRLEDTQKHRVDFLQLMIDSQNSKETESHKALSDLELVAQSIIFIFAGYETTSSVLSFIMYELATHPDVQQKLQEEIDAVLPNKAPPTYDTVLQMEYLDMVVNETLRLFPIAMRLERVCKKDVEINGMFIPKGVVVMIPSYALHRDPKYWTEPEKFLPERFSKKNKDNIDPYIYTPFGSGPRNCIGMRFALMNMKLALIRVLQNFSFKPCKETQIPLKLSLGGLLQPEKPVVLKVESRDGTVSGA
T1 sequence (Q7Z2W7 whole entry): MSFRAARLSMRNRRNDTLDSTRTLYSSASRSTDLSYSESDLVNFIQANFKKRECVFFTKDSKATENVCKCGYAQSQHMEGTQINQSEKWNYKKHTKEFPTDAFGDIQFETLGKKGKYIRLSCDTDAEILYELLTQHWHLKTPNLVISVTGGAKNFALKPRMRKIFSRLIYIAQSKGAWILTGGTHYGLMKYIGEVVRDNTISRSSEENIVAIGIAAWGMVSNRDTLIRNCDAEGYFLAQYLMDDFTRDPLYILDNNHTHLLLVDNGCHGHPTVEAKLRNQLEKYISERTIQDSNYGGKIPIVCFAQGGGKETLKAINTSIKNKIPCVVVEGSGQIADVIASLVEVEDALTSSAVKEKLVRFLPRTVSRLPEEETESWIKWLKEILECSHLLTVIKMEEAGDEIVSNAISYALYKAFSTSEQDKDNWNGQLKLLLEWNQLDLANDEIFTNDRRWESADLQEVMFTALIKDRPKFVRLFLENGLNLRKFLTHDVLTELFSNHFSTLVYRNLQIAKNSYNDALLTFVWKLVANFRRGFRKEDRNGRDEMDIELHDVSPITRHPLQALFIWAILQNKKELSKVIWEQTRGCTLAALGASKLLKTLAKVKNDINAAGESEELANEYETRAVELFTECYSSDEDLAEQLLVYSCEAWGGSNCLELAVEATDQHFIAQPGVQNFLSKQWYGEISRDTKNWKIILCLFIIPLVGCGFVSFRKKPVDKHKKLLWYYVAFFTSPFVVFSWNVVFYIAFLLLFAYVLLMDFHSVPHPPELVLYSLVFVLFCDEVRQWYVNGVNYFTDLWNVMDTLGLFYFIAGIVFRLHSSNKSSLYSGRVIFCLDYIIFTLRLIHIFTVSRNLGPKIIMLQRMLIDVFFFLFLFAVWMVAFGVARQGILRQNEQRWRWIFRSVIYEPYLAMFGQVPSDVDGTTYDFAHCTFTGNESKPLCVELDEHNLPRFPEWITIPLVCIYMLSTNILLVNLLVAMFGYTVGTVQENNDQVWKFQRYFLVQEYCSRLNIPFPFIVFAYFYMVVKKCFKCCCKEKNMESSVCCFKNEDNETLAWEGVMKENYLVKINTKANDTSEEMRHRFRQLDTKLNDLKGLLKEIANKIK
T4 sequence (Q12809 whole entry): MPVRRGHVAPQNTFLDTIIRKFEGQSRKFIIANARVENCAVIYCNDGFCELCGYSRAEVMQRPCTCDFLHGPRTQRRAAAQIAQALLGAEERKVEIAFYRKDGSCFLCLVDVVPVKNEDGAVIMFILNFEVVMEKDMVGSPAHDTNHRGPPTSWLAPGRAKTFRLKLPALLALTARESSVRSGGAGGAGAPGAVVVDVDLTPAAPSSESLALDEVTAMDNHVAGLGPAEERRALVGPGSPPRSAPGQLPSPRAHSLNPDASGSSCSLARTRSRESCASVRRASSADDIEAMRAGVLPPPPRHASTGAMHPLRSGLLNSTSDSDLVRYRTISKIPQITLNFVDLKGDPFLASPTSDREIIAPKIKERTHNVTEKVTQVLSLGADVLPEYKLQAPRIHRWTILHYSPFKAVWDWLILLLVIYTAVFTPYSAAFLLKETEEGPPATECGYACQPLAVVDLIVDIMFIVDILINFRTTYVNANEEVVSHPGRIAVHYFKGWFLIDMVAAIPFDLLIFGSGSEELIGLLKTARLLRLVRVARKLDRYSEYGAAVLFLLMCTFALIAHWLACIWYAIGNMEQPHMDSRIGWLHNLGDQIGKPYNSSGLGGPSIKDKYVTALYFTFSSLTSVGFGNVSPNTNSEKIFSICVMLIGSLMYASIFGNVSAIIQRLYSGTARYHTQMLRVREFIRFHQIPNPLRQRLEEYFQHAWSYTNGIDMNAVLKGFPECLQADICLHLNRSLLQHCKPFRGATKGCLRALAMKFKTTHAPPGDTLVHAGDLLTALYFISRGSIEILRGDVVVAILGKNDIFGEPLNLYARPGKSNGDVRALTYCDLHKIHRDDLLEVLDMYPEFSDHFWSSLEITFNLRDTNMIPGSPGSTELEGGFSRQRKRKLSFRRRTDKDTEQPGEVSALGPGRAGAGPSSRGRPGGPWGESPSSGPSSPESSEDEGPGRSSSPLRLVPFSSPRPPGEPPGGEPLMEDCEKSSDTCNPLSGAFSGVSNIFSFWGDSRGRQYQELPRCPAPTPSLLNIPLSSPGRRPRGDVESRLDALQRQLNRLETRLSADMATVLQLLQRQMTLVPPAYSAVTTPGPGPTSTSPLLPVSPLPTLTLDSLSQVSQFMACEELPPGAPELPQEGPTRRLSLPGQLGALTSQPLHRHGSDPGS
Sequence of CYP2C9 (P11712 whole entry): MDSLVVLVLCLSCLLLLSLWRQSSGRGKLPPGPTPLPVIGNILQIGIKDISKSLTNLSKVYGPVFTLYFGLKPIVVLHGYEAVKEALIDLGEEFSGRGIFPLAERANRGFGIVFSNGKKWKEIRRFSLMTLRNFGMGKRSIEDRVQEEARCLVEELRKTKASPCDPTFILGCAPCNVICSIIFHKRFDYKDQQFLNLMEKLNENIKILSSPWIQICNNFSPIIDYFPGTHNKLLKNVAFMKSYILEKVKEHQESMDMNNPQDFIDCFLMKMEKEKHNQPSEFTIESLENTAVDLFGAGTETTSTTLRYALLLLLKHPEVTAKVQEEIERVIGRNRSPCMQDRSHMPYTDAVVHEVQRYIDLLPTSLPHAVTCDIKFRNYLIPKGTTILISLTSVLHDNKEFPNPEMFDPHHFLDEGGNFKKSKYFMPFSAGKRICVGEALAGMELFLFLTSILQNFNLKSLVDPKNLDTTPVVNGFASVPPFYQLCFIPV

Structure (SMILES): CC(c1ccc(F)cc1)N(Cc1cccc(C(=O)O)c1)C(=O)C1Cc2ccccc2C1 (racemic)
pIC50 [1]: < 5.30

Structure (SMILES): C[C@H](c1ccc(F)cc1F)N(Cc1cccc(C(=O)O)n1)C(=O)c1cc2ccccc2cn1
inhibition at 3 µM [2]: 0%
inhibition at 3 µM [3]: 0%
pIC50 [1]: 6.72
microsomal CLint [4]: 31 µL/min/mg
inhibition at 3 µM [5]: 0%
inhibition at 3 µM [6]: 0%
hepatocyte intrinsic clearance [7]: < 2.2 µL/min/million cells
logD [8]: 0.4
microsomal CLint [9]: 11 µL/min/mg
inhibition at 3 µM [10]: 0%

Structure (SMILES): C[C@H](c1ccc(F)cc1)N(Cc1cccc(C(=O)O)c1)C(=O)Cc1cccc(Cl)c1
pIC50 [1]: < 5.00

Structure (SMILES): C[C@H](c1ccc(F)cc1F)N(Cc1cccc(C(=O)O)c1)C(=O)c1cc2ccccc2cn1
inhibition at 3 µM [2]: 0%
inhibition at 3 µM [3]: 0%
pIC50 [1]: 7.22
microsomal CLint [4]: 31 µL/min/mg
inhibition at 3 µM [5]: 0%
inhibition at 3 µM [6]: 0%
hepatocyte intrinsic clearance [7]: < 2 µL/min/million cells
logD [8]: 1.1
microsomal CLint [9]: 11 µL/min/mg
inhibition at 3 µM [10]: 0%

Structure (SMILES): C[C@H](c1ccc(F)cc1F)N(Cc1cccc(C(=O)O)c1)C(=O)c1cc2ccccn2n1
pIC50 [1]: 6.63
microsomal CLint [4]: 85 µL/min/mg
hepatocyte intrinsic clearance [7]: 31 µL/min/million cells
logD [8]: 0.9
microsomal CLint [9]: 23 µL/min/mg

Structure (SMILES): C[C@H](c1ccc(F)cc1)N(Cc1cccc(C(=O)O)n1)C(=O)c1cnc2ccccc2c1
pIC50 [1]: 5.94

Structure (SMILES): C[C@H](c1ccc(F)cc1)N(Cc1cccc(-c2nn[nH]n2)c1)C(=O)c1cnc2ccccc2c1
pIC50 [1]: 5.79

Structure (SMILES): C[C@H](c1ccc(F)cc1)N(Cc1cccc(C(=O)O)c1)C(=O)c1ccc(Oc2ccccc2)cc1
pIC50 [1]: < 5.21

Structure (SMILES): CC[C@H](c1ccc(F)cc1F)N(Cc1cccc(C(=O)O)c1)C(=O)c1cc2ccccn2n1
inhibition at 3 µM [2]: 0%
inhibition at 3 µM [3]: 0%
pIC50 [1]: 6.91
microsomal CLint [4]: 41 µL/min/mg
inhibition at 3 µM [5]: 0%
inhibition at 3 µM [6]: 0%
hepatocyte intrinsic clearance [7]: 48 µL/min/million cells
logD [8]: 1.2
microsomal CLint [9]: 28 µL/min/mg
inhibition at 3 µM [10]: 0%

Continued, in another order:

pIC50 [1]: 5.21
Structure (SMILES): COc1ccc(C(C)N(Cc2cccc(C(=O)O)c2)C(=O)c2cnc3ccccc3c2)cc1 (centres undefined)

inhibition at 3 µM [2]: 0%
inhibition at 3 µM [3]: 0%
pIC50 [1]: 7.21
microsomal CLint [4]: 102 µL/min/mg
inhibition at 3 µM [5]: 0%
inhibition at 3 µM [6]: 0%
hepatocyte intrinsic clearance [7]: 45 µL/min/million cells
logD [8]: 1.5
microsomal CLint [9]: 10 µL/min/mg
inhibition at 3 µM [10]: 0%
Structure (SMILES): C[C@H](c1cccc(Cl)c1)N(Cc1cccc(C(=O)O)c1)C(=O)c1cnc2ccccc2c1

pIC50 [1]: 5.48
Structure (SMILES): C[C@H](c1ccc(F)cc1)N(Cc1ccc(F)c(C(=O)O)c1)C(=O)c1cnc2ccccc2c1

pIC50 [1]: 6.69
microsomal CLint [4]: < 14 µL/min/mg
hepatocyte intrinsic clearance [7]: 28 µL/min/million cells
logD [8]: 1.3
microsomal CLint [9]: < 8 µL/min/mg
Structure (SMILES): CC[C@H](c1ccc(F)cc1)N(Cc1cccc(C(=O)O)c1)C(=O)c1cnc2ccccc2c1
pKi [11]: < 4.82

half-life [12]: 3.9 h
bioavailability [14]: 29%
clearance [15]: 31 mL/min/kg
clearance [17]: 19.8 mL/min/kg
inhibition at 3 µM [2]: 0%
Drug metabolism [18]: metabolite_detected
bioavailability [19]: 62%
Papp [20]: 6.8 ×10⁻⁶ cm/s
inhibition at 3 µM [3]: 0%
Fa [21]: 100%
bioavailability [22]: 92%
CL free [23]: 618 mL/min/kg
Vd [24]: 6.2 L/kg
pIC50 [1]: 6.74
Selectivity ratio [25]: > 100
fraction unbound [27]: 0.067
Fa [28]: 100%
pIC50 [30]: 6.99
microsomal CLint [4]: 17 µL/min/mg
half-life [32]: 3.6 h
inhibition at 3 µM [5]: 0%
inhibition at 3 µM [6]: 0%
hepatocyte intrinsic clearance [7]: < 15 µL/min/million cells
fraction unbound [33]: 0.07
fraction unbound [34]: 0.012
logD [8]: 1
microsomal CLint [9]: < 8 µL/min/mg
inhibition at 3 µM [10]: 0%
efflux ratio [35]: 4.8
Vd [36]: 7.4 L/kg
Fa [37]: 46%
fraction unbound [38]: 0.033
CL free [39]: 462 mL/min/kg
Selectivity ratio [40]: > 100
Structure (SMILES): C[C@H](c1ccc(F)cc1)N(Cc1cccc(C(=O)O)c1)C(=O)c1cnc2ccccc2c1 [PF-05105679]
IC50 [13]: > 30000 nM
pKi [11]: < 4.80
Activity [16]: Active
Activity [26]: Non-toxic
Activity [29]: Toxic
fCmax [31]: 254 nM

pIC50 [1]: < 5.00
Structure (SMILES): CC(C)(c1ccc(F)cc1)N(Cc1cccc(C(=O)O)c1)C(=O)c1cnc2ccccc2c1
